Results from patent publication US20090156477A1, “Compositions and Methods for Regulating Inflammatory Responses” (Massachusetts Institute of Technology, priority 2005, published 2009).

B1: FGF7: Recombinant human FGF7 from Sigma (protein, UniProt P21781 32-194, looked up)
Fibroblast growth factor 7: CNDMTPEQMATNVNCSSPERHTRSYDYMEGGDIRVRRLFCRTQWYLRIDKRGKVKGTQEMKNNYNIMEIRTVAVGIVAIKGVESEFYLAMNKEGKLYAKKECNEDCNFKELILENHYNTYASAKWTHNGGEMFVALNQKGIPVRGKKTKKEQKTAHFLPMAIT

What was measured:
Format in all cases: cell-based, human
Fz1 = test: RT-PCR expression in Caco-2 cells after FGF treatment: Fz1; details: normalized to PBS treatment, defined as 1.0
From the text: Five μg of total RNA was isolated from Caco-2 cells using Trizol reagent (Life Tech, Rockville, Md.) followed by reverse transcription with random hexamers. Specific oligomers were designed based on published sequences in order to detect the expression of specific human Wnt, Fz and syndecan isoforms. Sequences of primer pairs were as follows: Wnt-1: 5′-CACGACCTCGTCTACTTCGAC-3′ (SEQ ID NO: 17) and 5′-ACAGACACTCGTGCAGTACGC-3′ (SEQ ID NO: 18); Wnt-2: 5′-CATGGTGGTACATGAGAGCTAC-3′ (SEQ ID NO: 19) and 5′-GGCAAATACAACTCCAGCTGAG-3′ (SEQ ID NO: 20); Wnt-3: 5′-GAGAGCCTCCCCGTCCACAG-3′ (SEQ ID NO: 21) and 5′-CTGCCAGGAGTGTATTCGCATC-3′ (SEQ ID NO: 22); Wnt-3a: 5′-CAGGAACTACGTGGAGATCATG-3′ (SEQ ID NO: 23) and 5′-CCATCCCACCAAACTCGATGTC-3′ (SEQ ID NO: 24); Fz-1: 5′-GAACTTTCCTCCAACTTCATGGC-3′ (SEQ ID NO: 25) and 5′-CATTTCCATTTTACAGACCGG-3′ (SEQ ID NO: 26); Fz-2: 5′-GGTGAGCCAGCACTGCAAGAG-3′ (SEQ ID NO: 27) and 5′-CCTAAAAGTGAAATGGTTTCGATCG-3′ (SEQ ID NO: 28); Fz-10: 5′-ACACGTCCAACGCCAGCATG-3′ (SEQ ID NO: 29) and 5′-ACGAGTCATGTTGTAGCCGATG-3′ (SEQ ID NO: 30); and Syndecan-1/Sdc-1/CD138: 5′-CTTCACACTCCCCACACAGA-3′ (SEQ ID NO: 31) and 5′-TCCTGTTTGGTGGGCTTCTG-3′ (SEQ ID NO: 32). To control for total cell […], RT-PCR was also performed on β-actin using the primers 5′-GCCAGCTCACCATGGATGATGATAT-3′ (SEQ ID NO: 33) and 5′-GCTTGCTGATCCACATCTGCTGGAA-3′ (SEQ ID NO: 34). PCR was performed using the Advantage-GC cDNA kit from Clontech as per manufacturer's instructions (Palo Alto, Calif.).

E-cadherin = test: Immunohistochemistry for E-cadherin in Caco-2 cells; details: for E-cadherin localization after 24 hours: vs 1 hour and vs PBS and FGF1
Protocol: Caco-2 cells were grown to just prior to confluency on collagen IV coated glass slides. Cells were treated with PBS, FGF1, FGF2 and FGF7, and were incubated at 37° C. in a 5% CO2 humidified incubator for 1 hour, 4 hours, 24 hours or 48 hours, as noted. Cells were washed with PBS, fixed with 3.7% formalin for 10 minutes and washed again with PBS. Cells were treated with 0.1% Triton x-100 for 5 minutes to extract lipids. Cells were washed with PBS and preincubated with PBS supplemented with 1% bovine serum albumin. Primary antibodies were added for 4 hours at room temperature, and cells were washed with PBS. Primary antibodies used were as follows: rabbit anti-human ZO-1 (1:160; Zymed Laboratories, San Francisco, Calif.); mouse anti-human syndecan-1 (1:300; Santa Cruz Biotechnology); goat anti-human Fz-1 (1:125; Santa Cruz Biotechnology); rabbit anti-human caveolin-1 (1:250; Santa Cruz Biotechnology); goat anti-human glypican-1 (1:100; Santa Cruz Biotechnology); mouse anti-human E-cadherin (1:250; Zymed Laboratories); rabbit anti-human β-catenin (1:125; Cell Signaling Technology, Beverly, Mass.); and rabbit anti-human phospho-β-catenin (Ser33/37/Thr41; 1:125; Cell Signaling Technology, Beverly, Mass.).
Cells were then treated with secondary antibodies, Texas Red-labeled phalloidin (Molecular Probes, Eugene, Oreg.) or FLAER-FL1 (1:400; Protox Biotech, Victoria, BC, Canada) as appropriate for 1 hour in the dark at room temperature. Secondary antibodies used were as follows: FITC-labeled chicken anti-rabbit (for ZO-1; 1:100; Molecular Probes, Eugene, Oreg.); Texas Red-labeled goat-anti mouse (for syndecan-1; 1:400; Molecular Probes); FITC-labeled donkey anti-mouse (for syndecan-1; 1:400; Molecular Probes, Eugene, Oreg.); FITC-labeled rabbit anti-mouse (for syndecan-1 and E-cadherin; 1:500; Molecular Probes, Eugene, Oreg.); Texas Red-labeled rabbit anti-goat (for Fz-1; 1:200; Jackson ImmunoResearch Laboratories, West Grove, Pa.); Texas Red-labeled goat anti-rabbit (for caveolin-1, β-catenin and phospho-β-catenin; 1:500; Molecular Probes); and Texas Red-labeled donkey anti-goat (for glypican-1; 1:80; Research Diagnostics, Flanders, N.J.).
(§1) Cells, except those stained with phalloidin, were washed with PBS and stained with diamidino-2-phenylindole (DAPI) for 5 minutes at room temperature (Molecular Probes). Controls of no antibody, primary antibody only, and secondary antibody only were performed. Cells were examined by confocal microscopy (ZO-1 and phalloidin only), or by fluorescence microscopy. A Nikon HB10101AF fluorescence microscope was used and images were captured at room temperature using a Hitachi HVC20 camera and Scion image acquisition software. Images were processed using Adobe Photoshop 7.0 and Adobe Illustrator 10.0.

f-actin = f-actin (phalloidin) staining in Caco-2 cells; details: Caco-2 monolayers
Protocol: (§2) Caco-2 cells were grown to just prior to confluency on collagen IV coated glass slides. Cells were treated with PBS, FGF1, FGF2 and FGF7, and were incubated at 37° C. in a 5% CO2 humidified incubator for 1 hour, 4 hours, 24 hours or 48 hours, as noted. Cells were washed with PBS, fixed with 3.7% formalin for 10 minutes and washed again with PBS. Cells were treated with 0.1% Triton x-100 for 5 minutes to extract lipids. Cells were washed with PBS and preincubated with PBS supplemented with 1% bovine serum albumin. Primary antibodies were added for 4 hours at room temperature, and cells were washed with PBS. […]
as §1, with “Controls of no antibody, primary antibody only, and secondary antibody only were performed.” left out, “Images were processed using Adobe Photoshop 7.0 and Adobe Illustrator 10.0.” left out

phospho-β-catenin = test: Immunohistochemistry for phospho-β-catenin in Caco-2 cells
Protocol: as §2
as §1, with “Controls of no antibody, primary antibody only, and secondary antibody only were performed.” left out, “Images were processed using Adobe Photoshop 7.0 and Adobe Illustrator 10.0.” left out

Caco-2 monolayers = test: Monolayer flux of 3 kDa FITC-dextran, Caco-2; details: 100 ng/ml ligand on days 10 and 12, flux measured on day 15, PBS 20.28 ± 4.72
Protocol: Cells were plated on transwells as described. Media from the basolateral chamber was removed every other day and replaced with new media. Resistances were followed for 10 days, and either 100 ng/ml FGF2, 100 ng/ml FGF7 or 10 μl PBS were added on days 10 and 12. On day 15, media was removed from both the apical and basolateral chambers. The basolateral chamber was filled with 1 ml HBSS. FITC conjugated to 3 kDa dextran was added to the apical chamber in a volume of 100 μl, at 1 mg/ml in HBSS. After 30, 60 and 90 minutes, 50 μl was removed from the basolateral chamber and transferred to a 96 well plate, and 50 μl HBSS was added to the basolateral chamber. Subsequently, the flux was determined by measurement of FITC-conjugated dextran that crossed the monolayer by measurement with a fluorimeter, stimulating at 480 nm and measuring emission at 530 nm.

Row | Molecule | Fz1 expression (intensity of RT-PCR images) (Fz1) | E-cadherin localization after 1 hour (E-cadherin) | E-cadherin localization after 24 hours (E-cadherin) | actin stress fiber formation (f-actin) | phosphorylated β-catenin localization (phospho-β-catenin) | Flux across monolayers (3 kDa-dextran conjugated to FITC; function of emission at 530 nm over time) (Caco-2 monolayers)
1 | FGF1: Recombinant human FGF1 from Amgen | 1.5 | – | – | – | – | –
2 | FGF2: Recombinant human FGF2, produced as described | 1.1 | altered E-cadherin localization | more cytoplasmic localization | induced actin stress fiber formation | clustered around the nucleus | 47.82 ± 4.64
3 | B1 | 2.4 | altered E-cadherin localization | more cytoplasmic localization | induced actin stress fiber formation | clustered around the nucleus | 117.14 ± 25.36
